What was measured:
[1] = Cmax in Sprague-Dawley rat plasma at 10 mg/kg, ip by LC-MS/MS analysis; assay type: ADME, organism-based; set-up: dose 10 mg/kg, route intraperitoneal
[2] = Ratio of AUC in brain to plasma of Sprague-Dawley rat at 10 mg/kg, ip by LC-MS/MS analysis; assay type: ADME, organism-based; conditions: brain and plasma, read-out: Ratio AUC
[3] = target: Metabotropic glutamate receptor 6 (Homo sapiens, UniProt O15303); experiment: Negative allosteric modulation of human mGlu6 receptor expressed in HEK cells harboring GIRK assessed as reduction in glutamate-induced thallium flux preincubated for 2.3 mins followed by glutamate addition measured after 2.6 mins by BTC-AM-dye based fluorescence assay; assay type: cell-based
Chain of Metabotropic glutamate receptor 6 (O15303 whole entry): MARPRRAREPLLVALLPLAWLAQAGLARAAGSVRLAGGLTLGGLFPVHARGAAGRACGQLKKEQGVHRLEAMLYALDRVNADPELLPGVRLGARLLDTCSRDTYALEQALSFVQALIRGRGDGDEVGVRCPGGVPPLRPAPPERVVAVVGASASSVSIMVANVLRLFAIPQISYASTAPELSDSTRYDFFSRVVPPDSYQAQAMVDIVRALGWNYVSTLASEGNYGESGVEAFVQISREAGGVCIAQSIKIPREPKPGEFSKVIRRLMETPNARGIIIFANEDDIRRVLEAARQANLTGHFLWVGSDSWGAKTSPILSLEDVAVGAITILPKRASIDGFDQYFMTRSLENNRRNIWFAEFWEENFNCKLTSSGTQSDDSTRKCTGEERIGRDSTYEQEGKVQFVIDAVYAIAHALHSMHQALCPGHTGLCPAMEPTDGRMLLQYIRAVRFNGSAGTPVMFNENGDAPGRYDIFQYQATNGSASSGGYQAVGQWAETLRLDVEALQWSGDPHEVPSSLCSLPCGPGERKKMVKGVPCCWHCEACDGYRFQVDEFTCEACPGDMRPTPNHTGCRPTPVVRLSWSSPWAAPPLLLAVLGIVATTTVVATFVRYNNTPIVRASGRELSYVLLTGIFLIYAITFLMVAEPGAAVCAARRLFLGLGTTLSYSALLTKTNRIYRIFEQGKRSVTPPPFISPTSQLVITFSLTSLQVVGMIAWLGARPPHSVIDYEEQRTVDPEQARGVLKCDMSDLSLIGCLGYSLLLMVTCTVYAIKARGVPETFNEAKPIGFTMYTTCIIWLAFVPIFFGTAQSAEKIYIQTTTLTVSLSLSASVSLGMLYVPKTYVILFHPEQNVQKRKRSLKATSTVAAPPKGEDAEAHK

[4] = target: Metabotropic glutamate receptor 1 (Homo sapiens, UniProt Q13255); experiment: Negative allosteric modulation of human mGlu1R expressed in Trex293 cells assessed as decrease in glutamate-induced calcium mobilization preincubated for 2.3 mins followed by glutamate addition and measured after 2.6 mins by Fluo-4-AM dye based fluorescence assay; assay type: functional, cell-based
Chain of Metabotropic glutamate receptor 1 (Q13255 whole entry): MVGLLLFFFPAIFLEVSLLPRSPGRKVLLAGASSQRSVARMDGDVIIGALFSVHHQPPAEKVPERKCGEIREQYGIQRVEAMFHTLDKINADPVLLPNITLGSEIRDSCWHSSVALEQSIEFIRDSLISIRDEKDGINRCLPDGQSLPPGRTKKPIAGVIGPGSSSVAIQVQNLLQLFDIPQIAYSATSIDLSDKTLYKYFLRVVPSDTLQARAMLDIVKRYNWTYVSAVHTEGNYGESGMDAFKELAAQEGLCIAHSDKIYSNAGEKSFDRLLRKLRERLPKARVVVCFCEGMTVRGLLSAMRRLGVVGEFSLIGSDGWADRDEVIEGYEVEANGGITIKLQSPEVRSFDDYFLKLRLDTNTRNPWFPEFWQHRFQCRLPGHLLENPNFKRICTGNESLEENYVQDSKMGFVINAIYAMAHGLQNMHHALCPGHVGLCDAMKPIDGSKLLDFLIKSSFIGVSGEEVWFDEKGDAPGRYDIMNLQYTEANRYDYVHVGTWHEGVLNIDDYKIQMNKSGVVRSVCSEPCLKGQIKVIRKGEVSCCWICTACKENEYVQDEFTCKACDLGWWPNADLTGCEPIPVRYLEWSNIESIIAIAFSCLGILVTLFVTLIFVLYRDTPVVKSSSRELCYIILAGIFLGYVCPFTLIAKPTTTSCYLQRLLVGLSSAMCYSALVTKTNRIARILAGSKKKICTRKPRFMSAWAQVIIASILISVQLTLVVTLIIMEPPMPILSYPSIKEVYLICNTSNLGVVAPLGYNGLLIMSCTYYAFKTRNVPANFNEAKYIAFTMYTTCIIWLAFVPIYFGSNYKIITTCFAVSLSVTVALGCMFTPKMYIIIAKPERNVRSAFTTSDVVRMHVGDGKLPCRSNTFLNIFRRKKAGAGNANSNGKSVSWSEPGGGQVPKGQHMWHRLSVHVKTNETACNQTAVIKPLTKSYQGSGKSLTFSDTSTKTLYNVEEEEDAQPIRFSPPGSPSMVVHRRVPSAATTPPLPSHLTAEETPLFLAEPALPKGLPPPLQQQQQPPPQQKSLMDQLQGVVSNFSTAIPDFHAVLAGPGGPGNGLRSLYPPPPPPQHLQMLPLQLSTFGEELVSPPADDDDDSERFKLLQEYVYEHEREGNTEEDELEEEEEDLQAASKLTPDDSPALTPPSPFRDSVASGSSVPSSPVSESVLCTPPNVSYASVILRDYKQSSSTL

[5] = Unbound brain to plasma ratio in Sprague-Dawley rat at 0.2 mg/kg, iv administered as cassette dose by LC-MS/MS analysis; assay type: ADME, organism-based; conditions: brain and plasma, read-out: K(p,uu,brain)
[6] = target: Metabotropic glutamate receptor 2 (Rattus norvegicus) (UniProt P31421); experiment: Negative allosteric modulation of rat mGlu2R expressed in HEK293 cells co-expressing Galpha15 assessed as decrease in glutamate-induced calcium mobilization at 30 uM preincubated for 2.3 mins followed by glutamate addition and measured after 1.7 mins by Fluo-4-AM dye based fluorescence assay relative to control; assay type: functional, cell-based
Chain of Metabotropic glutamate receptor 2 (Rattus norvegicus) (P31421 19-872 limits assumed): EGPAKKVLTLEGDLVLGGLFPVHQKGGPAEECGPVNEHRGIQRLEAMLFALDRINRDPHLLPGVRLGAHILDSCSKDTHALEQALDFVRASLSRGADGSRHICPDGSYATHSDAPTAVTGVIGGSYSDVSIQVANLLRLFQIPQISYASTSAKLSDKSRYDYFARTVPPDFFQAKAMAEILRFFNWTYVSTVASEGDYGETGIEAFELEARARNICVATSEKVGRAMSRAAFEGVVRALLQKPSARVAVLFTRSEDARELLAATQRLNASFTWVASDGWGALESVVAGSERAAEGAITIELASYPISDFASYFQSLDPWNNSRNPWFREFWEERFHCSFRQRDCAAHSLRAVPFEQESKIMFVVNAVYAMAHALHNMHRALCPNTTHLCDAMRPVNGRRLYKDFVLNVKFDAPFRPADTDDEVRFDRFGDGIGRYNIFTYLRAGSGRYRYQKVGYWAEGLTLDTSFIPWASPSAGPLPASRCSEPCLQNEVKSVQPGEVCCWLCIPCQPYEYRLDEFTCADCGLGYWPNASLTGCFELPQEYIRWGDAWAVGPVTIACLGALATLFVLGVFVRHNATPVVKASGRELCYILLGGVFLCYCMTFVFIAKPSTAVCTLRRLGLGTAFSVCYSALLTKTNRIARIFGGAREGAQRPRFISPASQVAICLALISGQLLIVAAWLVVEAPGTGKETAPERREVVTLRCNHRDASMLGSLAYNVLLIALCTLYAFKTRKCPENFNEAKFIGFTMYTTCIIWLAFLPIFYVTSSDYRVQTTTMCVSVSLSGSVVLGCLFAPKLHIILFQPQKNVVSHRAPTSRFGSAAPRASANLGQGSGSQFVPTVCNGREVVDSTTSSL

[7] = Fraction unbound in rat plasma after 4 hrs by equilibrium dialysis method; assay type: ADME, cell-free
[8] = Unbound Cmax in Sprague-Dawley rat brain at 10 mg/kg, ip by LC-MS/MS analysis; assay type: ADME, organism-based; conditions: in vivo
[9] = Half life in Sprague-Dawley rat at 0.2 mg/kg, iv administered as cassette dose by LC-MS/MS analysis; assay type: ADME, organism-based; conditions: in vivo
[10] = Fraction unbound in human plasma after 4 hrs by equilibrium dialysis method; assay type: ADME, cell-free
[11] = AUC in Sprague-Dawley rat brain at 10 mg/kg, ip by LC-MS/MS analysis; assay type: ADME, organism-based; conditions: in vivo
[12] = Cmax in Sprague-Dawley rat brain at 10 mg/kg, ip by LC-MS/MS analysis; assay type: ADME, organism-based; set-up: dose 10 mg/kg, route intraperitoneal
[13] = Unbound AUC in Sprague-Dawley rat brain at 10 mg/kg, ip by LC-MS/MS analysis; assay type: ADME, organism-based; conditions: in vivo
[14] = target: Metabotropic glutamate receptor 3 (Rattus norvegicus, UniProt P31422); experiment: Negative allosteric modulation of rat mGlu3R expressed in Trex cells co-expressing Galpha15 assessed as decrease in glutamate-induced calcium mobilization preincubated for 2.3 mins followed by glutamate addition and measured after 2.6 mins by Fluo-4-AM dye based fluorescence assay; assay type: functional, cell-based
[15] = AUC in Sprague-Dawley rat plasma at 10 mg/kg, ip by LC-MS/MS analysis; assay type: ADME, organism-based; conditions: in vivo
[16] = Fraction unbound in rat brain; assay type: ADME, tissue-based
[17] = target: Metabotropic glutamate receptor 7 (Rattus norvegicus, UniProt P35400); experiment: Negative allosteric modulation of rat mGlu7 receptor expressed in HEK cells harboring GIRK assessed as reduction in […]-induced thallium flux preincubated for 2.3 mins followed by […] addition measured after 2.6 mins by BTC-AM-dye based fluorescence assay; assay type: cell-based
Chain of Metabotropic glutamate receptor 7 (P35400 whole entry): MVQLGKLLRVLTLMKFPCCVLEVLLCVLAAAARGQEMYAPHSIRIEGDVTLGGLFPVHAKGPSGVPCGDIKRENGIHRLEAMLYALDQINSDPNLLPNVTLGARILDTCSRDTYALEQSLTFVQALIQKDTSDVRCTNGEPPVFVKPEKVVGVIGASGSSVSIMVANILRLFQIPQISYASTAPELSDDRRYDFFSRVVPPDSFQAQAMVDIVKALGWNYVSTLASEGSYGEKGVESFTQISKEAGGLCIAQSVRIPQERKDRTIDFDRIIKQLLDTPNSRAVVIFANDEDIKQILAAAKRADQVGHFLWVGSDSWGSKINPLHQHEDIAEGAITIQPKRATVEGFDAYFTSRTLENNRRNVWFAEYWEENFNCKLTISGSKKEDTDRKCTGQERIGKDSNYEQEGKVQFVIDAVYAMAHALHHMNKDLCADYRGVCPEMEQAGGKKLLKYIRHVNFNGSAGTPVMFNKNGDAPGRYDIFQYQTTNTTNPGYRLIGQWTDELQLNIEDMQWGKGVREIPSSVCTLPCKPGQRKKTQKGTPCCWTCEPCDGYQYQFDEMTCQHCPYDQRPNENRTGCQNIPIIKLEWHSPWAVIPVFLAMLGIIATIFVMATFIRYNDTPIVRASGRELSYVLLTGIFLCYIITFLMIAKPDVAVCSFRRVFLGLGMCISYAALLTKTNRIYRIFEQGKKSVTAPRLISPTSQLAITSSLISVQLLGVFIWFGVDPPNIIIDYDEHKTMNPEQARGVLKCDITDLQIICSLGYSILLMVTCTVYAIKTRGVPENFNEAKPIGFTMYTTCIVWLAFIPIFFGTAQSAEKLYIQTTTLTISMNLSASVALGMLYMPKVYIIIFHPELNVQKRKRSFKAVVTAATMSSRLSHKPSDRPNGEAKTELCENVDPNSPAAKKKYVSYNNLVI

[18] = target: Metabotropic glutamate receptor 2 (Rattus norvegicus, UniProt P31421); experiment: Negative allosteric modulation of rat mGlu2R expressed in HEK293 cells co-expressing Galpha15 assessed as decrease in glutamate-induced calcium mobilization preincubated for 2.3 mins followed by glutamate addition and measured after 1.7 mins by Fluo-4-AM dye based fluorescence assay; assay type: functional, cell-based
[19] = target: Metabotropic glutamate receptor 4 (Rattus norvegicus, UniProt P31423); experiment: Negative allosteric modulation of rat mGlu4 receptor expressed in HEK cells harboring GIRK assessed as reduction in glutamate-induced thallium flux preincubated for 2.3 mins followed by glutamate addition measured after 2.6 mins by BTC-AM-dye based fluorescence assay; assay type: cell-based
[20] = Brain to plasma partition coefficient, Kp of the compound in Sprague-Dawley rat at 0.2 mg/kg, iv administered as cassette dose by LC-MS/MS analysis; assay type: ADME, organism-based; conditions: brain and plasma
[21] = target: Metabotropic glutamate receptor 5 (Homo sapiens, UniProt P41594); experiment: Negative allosteric modulation of human mGlu5R expressed in Trex293 cells assessed as decrease in glutamate-induced calcium mobilization preincubated for 2.3 mins followed by glutamate addition and measured after 2.6 mins by Fluo-4-AM dye based fluorescence assay; assay type: functional, cell-based
[22] = target: Metabotropic glutamate receptor 8 (Rattus norvegicus, UniProt P70579); experiment: Negative allosteric modulation of rat mGlu8 receptor expressed in HEK cells harboring GIRK assessed as reduction in glutamate-induced thallium flux preincubated for 2.3 mins followed by glutamate addition measured after 2.6 mins by BTC-AM-dye based fluorescence assay; assay type: cell-based
Chain of Metabotropic glutamate receptor 8 (P70579 whole entry): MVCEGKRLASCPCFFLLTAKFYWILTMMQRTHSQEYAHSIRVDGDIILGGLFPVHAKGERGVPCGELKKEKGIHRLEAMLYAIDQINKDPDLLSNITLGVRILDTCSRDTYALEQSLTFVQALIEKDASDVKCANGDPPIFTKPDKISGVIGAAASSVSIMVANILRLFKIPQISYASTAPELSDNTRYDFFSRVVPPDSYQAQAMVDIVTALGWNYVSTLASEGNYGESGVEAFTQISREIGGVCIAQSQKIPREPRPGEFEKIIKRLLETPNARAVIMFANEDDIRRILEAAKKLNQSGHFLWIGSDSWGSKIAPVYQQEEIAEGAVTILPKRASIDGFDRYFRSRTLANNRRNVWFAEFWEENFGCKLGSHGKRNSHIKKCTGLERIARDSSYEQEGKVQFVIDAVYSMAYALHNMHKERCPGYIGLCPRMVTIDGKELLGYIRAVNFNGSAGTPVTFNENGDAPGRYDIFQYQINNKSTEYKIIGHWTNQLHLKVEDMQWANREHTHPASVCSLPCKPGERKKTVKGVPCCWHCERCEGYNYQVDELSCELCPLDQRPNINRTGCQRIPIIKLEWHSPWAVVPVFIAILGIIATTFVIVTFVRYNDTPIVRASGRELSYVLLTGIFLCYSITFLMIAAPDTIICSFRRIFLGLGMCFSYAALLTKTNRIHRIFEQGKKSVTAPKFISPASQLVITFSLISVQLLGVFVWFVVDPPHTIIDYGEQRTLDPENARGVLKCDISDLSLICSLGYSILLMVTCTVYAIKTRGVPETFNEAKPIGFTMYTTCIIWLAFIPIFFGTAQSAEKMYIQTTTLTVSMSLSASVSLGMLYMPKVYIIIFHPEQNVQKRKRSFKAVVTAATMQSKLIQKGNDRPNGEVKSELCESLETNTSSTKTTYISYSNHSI

- Cmax [1]: 1.07 µM
- Kp [2]: 5.67
- IC50 [3]: > 30 µM
- IC50 [4]: > 30 µM
- Kp uu [5]: 0.52
- Emax [6]: 2.3%
- fraction unbound at 4 h [7]: 0.05
- fCmax [8]: 30.4 nM
- t1/2 [9]: 1.5 h
- fraction unbound at 4 h [10]: 0.01
- AUC [11]: 32.9 µM
- Cmax [12]: 6.09 µM
- fAUC [13]: 165 nM
- IC50 [14]: > 30 µM
- AUC [15]: 5.81 µM
- fraction unbound [16]: 0.005
- IC50 [17]: > 30 µM
- IC50 [18]: 0.55 µM
- IC50 [19]: > 30 µM
- Kp [20]: 5.67
- IC50 [21]: > 30 µM
- IC50 [22]: > 30 µM
Structure (SMILES): C[C@@H]1CN(Cc2cc3nc(C(N)=O)cc(-c4ccc(F)cc4)c3s2)C[C@H](C)O1
